Starred links: 1 amine or outer side, 2 acyl side, 3 side chain; linkers in the order of their positions; H or OH if unused. Positions of bridges follow the written chain, without caps; N, C: chain ends. Residues, ends and D or L forms follow the SMILES beside them. pXylylene = c1cc(C[*:2])ccc1C[*:1]
Experiments:
[1] = 48 hours cytotoxicity assay (CellTiter-Glo), liver toxicity; format: cell-based, human; details: 48 hours of incubation, CellTiter-Glo; read-out: Inhibitory Concentration at 50% Cytotoxicity (IC50) Human Liver Cells (HepG2)
Method in brief: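 Viability from CellTiter-Glo luminescence after StAMP dilution series or vehicle acted on HepG2 cells for 48 h at 37 °C. Cells were grown in EMEM plus 10% FBS and given 4 h to attach before dosing.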

[2] = test system: Acinetobacter baumannii (A. baumannii); format: cell-based; details: microbroth dilution, 20-24 hours at 37° C.
Method in brief: (§1)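 Visual growth read-out after 20-24 h at 37 °C defines the MIC. Inoculum: 5×10^5 CFU/ml of regrown (3-4 h) bacteria in MHB or MHB II, against serial peptide dilutions, following an adapted CLSI protocol.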

[3] = test system: Pseudomonas aeruginosa (P. aeruginosa); format: cell-based; details: microbroth dilution, 20-24 hours at 37° C.
Method in brief: as §1

[4] = test system: Staphylococcus aureus (S. aureus); format: cell-based; details: microbroth dilution, 20-24 hours at 37° C.
Method in brief: as §1

[5] = test system: Klebsiella pneumoniae (K. pneumoniae); format: cell-based; details: microbroth dilution, 20-24 hours at 37° C.
Method in brief: as §1

[6] = test system: Escherichia coli (E. coli); format: cell-based; details: microbroth dilution, 20-24 hours at 37° C.
Method in brief: as §1

[7] = 90 minute cytotoxicity assay (LDH release), renal toxicity; format: cell-based; details: 90 minutes of incubation, LDH release; read-out: Inhibitory Concentration at 50% Cytotoxicity (IC50) Human Renal Proximal Tubule Epithelial Cells (RPTEC)
Method in brief: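 Released lactate dehydrogenase, read as absorbance at 490 nm after 10 min with assay reagent, serves as read-out. Renal proximal tubule epithelial cells received peptide serial dilutions or vehicle for 90 min at 37° C after overnight plating.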

CC[C@H](C)[C@H](NC(=O)CN)C(=O)N[C@@H](Cc1ccccc1)C(=O)N[C@@H](CO)C(=O)N[C@@H](CCCCN)C(=O)N[C@@H](CC(C)C)C(=O)N[C@@H](C)C(=O)NCC(=O)N[C@@H](CCCCN)C(=O)N[C@@H](CCCCN)C(=O)N[C@H](C(=O)N[C@@H](CCCCN)C(=O)N[C@@H](CC(N)=O)C(=O)N[C@@H](CC(C)C)C(=O)N[C@H]1CSCc2ccc(cc2)CSC[C@@H](C(=O)N[C@@H](CCCCN)C(=O)NCC(N)=O)NC(=O)CNC(=O)[C@H](CO)NC(=O)[C@H]([C@@H](C)CC)NC1=O)[C@@H](C)CC [compound 30] (H-GIFSKLAGKKIKNLCISGCKG-NH2; linker 15-19 via pXylylene)
IC50 [1]: > 200 µg/mL
Minimum Inhibitory Concentration (MIC) A. baumannii [2]: 16 µg/mL
Minimum Inhibitory Concentration (MIC) P. aeruginosa [3]: 64 µg/mL
Minimum Inhibitory Concentration (MIC) S. aureus [4]: >64 µg/mL
Minimum Inhibitory Concentration (MIC) K. pneumoniae [5]: >64 µg/mL
Minimum Inhibitory Concentration (MIC) E. coli [6]: 64 µg/mL
IC50 [7]: > 200 µg/mL
